pIC50: −log10 of the molar value.

The target in this assay is IGF-1R (Homo sapiens (Human), UniProt P08069). Kind of assay: Example B-1: IGF-1R Assay (PC3 cells, IGF1 stimulation, AlphaLISA). The settings on record: 200 ng/mL IGF1 stimulation, read-out: Biological Activity against IGF-1R IC50. It counts as cell-based. In outline: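 Readout is AlphaLISA signal from lysed PC3 cells, expressed as % inhibition versus vehicle and EC80 controls and banded by IC50. Before lysis, the cells were starved of serum for 2 h, exposed to 3× serially diluted compound for 2 h, and stimulated for 30 min with 200 ng/mL IGF1 (final).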
Sequence of IGF-1R (P08069 31-1367): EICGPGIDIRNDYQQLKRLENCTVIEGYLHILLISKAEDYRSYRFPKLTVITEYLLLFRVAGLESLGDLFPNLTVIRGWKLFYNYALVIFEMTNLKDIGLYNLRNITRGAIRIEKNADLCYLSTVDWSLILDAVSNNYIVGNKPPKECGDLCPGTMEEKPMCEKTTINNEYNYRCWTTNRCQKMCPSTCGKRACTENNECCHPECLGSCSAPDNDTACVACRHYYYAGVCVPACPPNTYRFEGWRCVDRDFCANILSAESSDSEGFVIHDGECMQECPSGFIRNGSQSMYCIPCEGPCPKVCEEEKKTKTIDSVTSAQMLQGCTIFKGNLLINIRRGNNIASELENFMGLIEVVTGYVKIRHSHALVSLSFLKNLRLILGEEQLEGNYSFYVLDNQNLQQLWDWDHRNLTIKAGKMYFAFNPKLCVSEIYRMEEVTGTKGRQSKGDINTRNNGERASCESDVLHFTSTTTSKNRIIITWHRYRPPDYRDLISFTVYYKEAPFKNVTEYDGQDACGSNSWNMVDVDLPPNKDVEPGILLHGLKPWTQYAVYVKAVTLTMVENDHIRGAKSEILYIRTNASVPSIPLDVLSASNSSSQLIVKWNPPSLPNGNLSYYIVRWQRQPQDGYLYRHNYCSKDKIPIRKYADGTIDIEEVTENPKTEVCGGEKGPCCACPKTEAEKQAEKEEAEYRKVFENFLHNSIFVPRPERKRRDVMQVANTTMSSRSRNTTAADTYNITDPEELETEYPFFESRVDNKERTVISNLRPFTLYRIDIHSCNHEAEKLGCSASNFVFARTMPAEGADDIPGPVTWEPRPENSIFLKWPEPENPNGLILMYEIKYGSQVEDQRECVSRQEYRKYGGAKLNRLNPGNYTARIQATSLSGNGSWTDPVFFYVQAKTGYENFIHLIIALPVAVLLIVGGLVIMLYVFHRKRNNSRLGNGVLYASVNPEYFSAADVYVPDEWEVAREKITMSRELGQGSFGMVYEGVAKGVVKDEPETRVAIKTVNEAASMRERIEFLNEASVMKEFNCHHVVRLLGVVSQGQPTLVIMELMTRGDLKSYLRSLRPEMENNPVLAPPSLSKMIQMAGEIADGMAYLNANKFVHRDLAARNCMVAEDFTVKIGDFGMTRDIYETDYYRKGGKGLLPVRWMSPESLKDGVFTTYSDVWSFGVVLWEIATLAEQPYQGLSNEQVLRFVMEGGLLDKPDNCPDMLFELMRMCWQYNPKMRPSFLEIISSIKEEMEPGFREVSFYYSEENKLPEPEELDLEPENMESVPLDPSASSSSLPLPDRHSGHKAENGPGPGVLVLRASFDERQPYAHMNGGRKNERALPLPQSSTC
A word on the pIC50: it is the IC50 on a negative log10 scale, so that one unit is a factor of ten. In the case of `COc1cc(Nc2nccc(Nc3cnc4ccc(C5CC5)cc4c3)n2)ccc1OCCCN1CCCCC1` [Compound 102, 4-(6-cyclopropyl-3-quinolylamino)-2-[3-methoxy-4-(3-piperidinopropoxy)phenylamino]pyrimidine], the pIC50 is ≥ 6.30.

`COc1cc(Nc2nccc(Nc3cnc4ccc(C5CC5)cc4c3)n2)ccc1OCCCN1CCOCC1` [Compound 103, 4-(6-cyclopropyl-3-quinolylamino)-2-[3-methoxy-4-(3-morpholinopropoxy)phenylamino]pyrimidine]: the pIC50 is ≥ 6.30.

Take `CCc1ccc2ncc(Nc3ccnc(Nc4ccc(OCCCN5CCOCC5)c(OC)c4)n3)cc2c1` [Compound 104, 4-(6-ethyl-3-quinolylamino)-2-[3-methoxy-4-(3-morpholinopropoxy)phenylamino]pyrimidine]: the pIC50 is ≥ 6.30. Next, `C[C@@H]1COc2ncc(Nc3ccnc(Nc4ccc(OCCCN5CCOCC5)cc4)n3)cc2O1` [Compound 105, 4-[(R)-2-methyl-2,3-dihydro-1,4-dioxa-5-aza-7-naphthylamino]-2-[p-(3-morpholinopropoxy)phenylamino]pyrimidine]: ≥ 6.30; `C[C@H]1COc2ncc(Nc3ccnc(Nc4ccc(OCCCN5CCOCC5)cc4)n3)cc2O1` [Compound 106, 4-[(S)-2-methyl-2,3-dihydro-1,4-dioxa-5-aza-7-naphthylamino]-2-[p-(3-morpholinopropoxy)phenylamino]pyrimidine]: 5.70 to 6.30. As for `COc1cc(Nc2nccc(Nc3cnc4cc(C5CC5)ccc4c3)n2)ccc1OCCCN1CCCCC1` [Compound 107, 4-(7-cyclopropyl-3-quinolylamino)-2-[3-methoxy-4-(3-piperidinopropoxy)phenylamino]pyrimidine], the pIC50 is ≥ 6.30. As for `COc1cc(Nc2nccc(Nc3cc4ccccc4nc3OC)n2)ccc1OCCCN1CCCCC1` [Compound 108, 2-[3-methoxy-4-(3-piperidinopropoxy)phenylamino]-4-(2-methoxy-3-quinolylamino)pyrimidine], the pIC50 was ≥ 6.30. Next, `COc1cc(Nc2nccc(Nc3cc4ccc(Cl)cc4[nH]c3=O)n2)ccc1O[C@H]1C[C@H](N(C)C)C1` [Compound 110, 7-chloro-3-(2-{3-methoxy-4-[(1r,3r)-3-(dimethylamino)cyclobutoxy]phenyl-amino}-4-pyrimidinylamino)-1,2-dihydro-2-quinolinone]: ≥ 6.30; `COc1cc(Nc2nccc(Nc3cc4cc(Br)ccc4[nH]c3=O)n2)ccc1O[C@H]1C[C@H](N(C)C)C1` [Compound 111]: ≥ 6.30; `COc1cc(Nc2nccc(Nc3cc4cccc(Cl)c4[nH]c3=O)n2)ccc1O[C@H]1C[C@H](N(C)C)C1` [Compound 112, 8-chloro-3-(2-{3-methoxy-4-[(1r,3r)-3-(dimethylamino)cyclobutoxy]phenyl-amino}-4-pyrimidinylamino)-1,2-dihydro-2-quinolinone]: ≥ 6.30. To `COc1cc(Nc2nccc(Nc3cnc4c(F)cc(F)cc4c3)n2)ccc1O[C@H]1C[C@@H](N(C)C)C1` [Compound 113, 4-(6,8-difluoro-3-quinolylamino)-2-{3-methoxy-4-[(1s,3s)-3-(dimethylamino)cyclobutoxy]phenylamino}pyrimidine] belongs ≥ 6.30; to `COc1cc(Nc2nccc(Nc3cnc4c(F)cc(Cl)cc4c3)n2)ccc1O[C@H]1C[C@@H](N(C)C)C1` [Compound 114, 4-(6-chloro-8-fluoro-3-quinolylamino)-2-{3-methoxy-4-[(1s,3s)-3-(dimethylamino)cyclobutoxy]phenylamino}pyrimidine], ≥ 6.30; to `COc1cc(Nc2nccc(Nc3cc4ccc(F)c(F)c4[nH]c3=O)n2)ccc1O[C@H]1C[C@@H](N(C)C)C1` [Compound 117, 7,8-difluoro-3-(2-{3-methoxy-4-[(1s,3s)-3-(dimethylamino)cyclobutoxy]phenyl-amino}-4-pyrimidinylamino)-1,2-dihydro-2-quinolinone], ≥ 6.30. To `COc1cc(Nc2nccc(Nc3cnc4cc(F)cc(F)c4c3)n2)ccc1O[C@H]1C[C@@H](N(C)C)C1` [Compound 118, 4-(5,7-difluoro-3-quinolylamino)-2-{3-methoxy-4-[(1s,3s)-3-(dimethylamino)cyclobutoxy]phenylamino}pyrimidine] belongs ≥ 6.30. As to `COc1cc(Nc2nccc(Nc3cc4cc(F)c(F)cc4[nH]c3=O)n2)ccc1O[C@H]1C[C@@H](N(C)C)C1` [Compound 119, 6,7-difluoro-3-(2-{3-methoxy-4-[(1s,3s)-3-(dimethylamino)cyclobutoxy]phenyl-amino}-4-pyrimidinylamino)-1,2-dihydro-2-quinolinone], the pIC50 is ≥ 6.30.

Take `COc1cc(Nc2nccc(Nc3cc4cccc(F)c4[nH]c3=O)n2)ccc1O[C@H]1C[C@@H](N(C)C)C1` [Compound 120, 8-fluoro-3-(2-{3-methoxy-4-[(1s,3s)-3-(dimethylamino)cyclobutoxy]phenyl-amino}-4-pyrimidinylamino)-1,2-dihydro-2-quinolinone]: the pIC50 was ≥ 6.30. Next, `COc1cc(Nc2nccc(Nc3cc4cc(F)ccc4[nH]c3=O)n2)ccc1O[C@H]1C[C@@H](N(C)C)C1` [Compound 121, 6-fluoro-3-(2-{3-methoxy-4-[(1s,3s)-3-(dimethylamino)cyclobutoxy]phenyl-amino}-4-pyrimidinylamino)-1,2-dihydro-2-quinolinone]: ≥ 6.30; `COc1cc(Nc2nccc(Nc3cc4ccc(F)cc4[nH]c3=O)n2)ccc1O[C@H]1C[C@@H](N(C)C)C1` [Compound 122, 7-fluoro-3-(2-{3-methoxy-4-[(1s,3s)-3-(dimethylamino)cyclobutoxy]phenyl-amino}-4-pyrimidinylamino)-1,2-dihydro-2-quinolinone]: ≥ 6.30; `COc1cc(Nc2nccc(Nc3cnc4ccc(F)c(F)c4c3)n2)ccc1O[C@H]1C[C@@H](N(C)C)C1` [Compound 125, 4-(5,6-difluoro-3-quinolylamino)-2-{3-methoxy-4-[(1s,3s)-3-(dimethylamino)cyclobutoxy]phenylamino}pyrimidine]: ≥ 6.30. For `COc1cc(Nc2nccc(Nc3cnc4cc(F)c(F)cc4c3)n2)cnc1N1CC2CCC(C1)O2` [Compound 126, 4-(6,7-difluoro-3-quinolylamino)-2-{5-methoxy-6-(8-oxa-3-azabicyclo[3.2.1]oct-3-y1)-3-pyridylamino}pyrimidine], the pIC50 was 5.70 to 6.30. For the compound `COc1cc(Nc2nccc(Nc3cnc4cc(F)c(F)cc4c3)n2)cnc1N1C[C@H]2C[C@@H]1CO2` [Compound 127, 2-(6-{(1R,4R)-2-oxa-5-azabicyclo[2.2.1]hept-5-yl}-5-methoxy-3-pyridylamino)-4-(6,7-difluoro-3-quinolylamino)pyrimidine], the pIC50 is ≥ 6.30. To `COc1cc(Nc2nccc(Nc3cnc4ccc(OC(F)(F)F)cc4c3)n2)ccc1O[C@H]1C[C@@H](N(C)C)C1` [Compound 128, N2-(4-((1s,3s)-3-(dimethylamino)cyclobutoxy)-3-methoxyphenyl)-N4-(6-(trifluoromethoxy)quinolin-3-yl)pyrimidine-2,4-diamine] belongs ≥ 6.30. `COc1cc(Nc2nccc(Nc3cnc4ccc(Cl)cc4c3)n2)cnc1O[C@H]1C[C@@H](N(C)C)C1` [Compound 131, N4-(6-chloroquinolin-3-yl)-N2-(6-((1s,3s)-3-(dimethylamino)cyclobutoxy)-5-methoxypyridin-3-yl)pyrimidine-2,4-diamine]: the pIC50 was ≥ 6.30.

As for `COc1cc(Nc2nccc(Nc3cnc4ccccc4c3)n2)cnc1O[C@H]1C[C@@H](N(C)C)C1` [Compound 132, N2-(6-((1s,3s)-3-(dimethylamino)cyclobutoxy)-5-methoxypyridin-3-yl)-N4-(quinolin-3-yl)pyrimidine-2,4-diamine], the negative-log IC50 (pIC50) is ≥ 6.30. With `CN(C)CC(=O)N1CCc2cc(Nc3nccc(Nc4cc5cccc(F)c5[nH]c4=O)n3)ccc21` [Compound 151, 3-((2-((1-(dimethylglycyl)indolin-5-yl)amino)pyrimidin-4-yl)amino)-8-fluoroquinolin-2(1H)-one], the pIC50 was ≥ 6.30. For the compound `COc1cc(Nc2nccc(Nc3cnc4cc(F)c(F)cc4c3)n2)c(C)cc1O[C@H]1C[C@@H](N(C)C)C1` [Compound 154, N4-(6,7-difluoroquinolin-3-yl)-N2-(4-((1s,3s)-3-(dimethylamino)cyclobutoxy)-5-methoxy-2-methylphenyl)pyrimidine-2,4-diamine], the negative-log IC50 (pIC50) is ≥ 6.30. In the case of `COc1cc(Nc2nccc(Nc3cnc4cc(F)c(F)cc4c3)n2)ccc1N1CCC(C)(O)CC1` [Compound 155, 1-(4-((4-((6,7-difluoroquinolin-3-yl)amino)pyrimidin-2-yl)amino)-2-methoxyphenyl)-4-methylpiperidin-4-ol], the negative-log IC50 (pIC50) was ≥ 6.30.

For `COc1cc(Nc2nccc(Nc3cnc4cc(F)c(F)cc4c3)n2)cnc1N1CCC(C)(O)CC1` [Compound 156, 1-(5-((4-((6,7-difluoroquinolin-3-yl)amino)pyrimidin-2-yl)amino)-3-methoxypyridin-2-yl)-4-methylpiperidin-4-ol], the pIC50 is ≥ 6.30. Next, `COc1cc(Nc2nccc(Nc3cnc4cc(F)c(F)cc4c3)n2)cnc1N1CCOC(C)(C)C1` [Compound 157, N4-(6,7-difluoroquinolin-3-yl)-N2-(6-(2,2-dimethylmorpholino)-5-methoxypyridin-3-yl)pyrimidine-2,4-diamine]: 5.70 to 6.30. Next, `COc1cc(Nc2nccc(Nc3cnc4cc(F)c(F)cc4c3)n2)cnc1N1CCS(=N)(=O)CC1` [Compound 158, 4-(5-((4-((6,7-difluoroquinolin-3-yl)amino)pyrimidin-2-yl)amino)-3-methoxypyridin-2-yl)-1-imino-116-thiomorpholine 1-oxide]: 5.70 to 6.30; `COc1cc(Nc2nccc(Nc3cc4cccc(F)c4[nH]c3=O)n2)cnc1N1CCOC(C)(C)C1` [Compound 160, 3-((2-((6-(2,2-dimethylmorpholino)-5-methoxypyridin-3-yl)amino)pyrimidin-4-yl)amino)-8-fluoroquinolin-2(1H)-one]: ≥ 6.30.

Values taken from patent publication US20250171431A1, “HETEROCYCLIC INHIBITORS OF IGF-1R FOR TREATMENT OF DISEASE” (HORIZON THERAPEUTICS IRELAND DAC, priority 2023, published 2025).
